Source: patent US20150323548A1, “METHODS OF MONITORING THE MODULATION OF THE KINASE ACTIVITY OF FIBROBLAST GROWTH FACTOR RECEPTOR AND USES OF SAID METHODS” (Novartis AG, priority 2008, published 2015)
Marks after values point to notes of the source that are not given here.

Columns and labels:
[1] = system: FGF23; assay: FGF23 ELISA in plasma of dogs; assay type: in vivo, dog; conditions: plasma 1 hour after last administration
[2] = Rat mechanistic study: histopathology and tolerability; assay type: in vivo
[3] = system: NIH3T3/FGFR3^S249C subcutaneous tumors; assay: Anti-tumor activity in subcutaneous NIH3T3/FGFR3^S249C tumor homograft model in nude mice; assay type: in vivo, mouse; conditions: p.o., qd, treatment day 8
Protocol: (§1) Animals. Experiments were performed in female HsdNpa: Athymic Nude-nu mice obtained from Laboratory Animal Services, Novartis Pharma AG, Basel, Switzerland. The animals were kept under OHC conditions in Makrolon type II cages (maximum of 10 animals/cage) with 12 hour dark, 12 hour light conditions (lights on: 6 AM, lights off: 6 PM). The animals were fed food and water ad libitum. Experiments were conducted under license number 1762 and license number 1763 approved by the Basel Cantonal Veterinary Office. All invasive procedures were performed under Forene anesthesia.
Establishment of NIH3T3/FGFR3^S249C tumor homograft model in nude mice. The NIH3T3/FGFR3^S249C model has been validated and characterized as a subcutaneous murine tumor model for the in vivo profiling of FGFR inhibitors. The parental NIH3T3 cell line was originally derived by immortalization of mouse embryonic fibroblasts. NIH3T3/FGFR3^S249C cells were generated by infection of parental NIH3T3 fibroblasts with a retroviral vector expressing FGFR3 with the activating mutation S249C. Pools of G418 resistant NIH3T3^S249C cells were established and characterized for FGFR3 expression and tyrosine phosphorylation. To generate homografts, 5×10^5 NIH3T3/FGFR3^S249C cells resuspended in PBS were injected subcutaneously in nude mice (0.2 ml/mouse).
Evaluation of anti-tumor activity. For the NIH3T3/FGFR3^S249C model, treatment was initiated when the average tumor volume reached approximately 100 mm^3. Tumor growth and body weights were monitored at regular intervals. The tumor sizes were measured manually with calipers. Tumor volume was estimated using the formula: (W×L×H×π/6), where width (W), length (L) and height (H) are the three largest diameters.
(§2) Statistical analysis. When applicable, results are presented as mean±SEM. Tumor and body weight data were analyzed by ANOVA with post hoc Dunnett's test for comparison of treatment versus control group. The post hoc Tukey test was used for intra-group comparison. The level of significance of body weight change within a group between the start and the end of the experiment was determined using a paired t-test. Statistical analysis was performed using GraphPad prism 4.02 (GraphPad Software).
(§3) As a measure of anti-tumor efficacy, the % T/C value is calculated at a certain number of days after treatment start according to: (mean change of tumor volume treated animals/mean change tumor volume control animals)×100. When applicable, % regressions are calculated according to the formula (mean change tumor volume/mean initial tumor volume)×100.
(§4) Compound formulation and animal treatment. […] Vehicle consisted of PEG300/DSW. The application volumes were 10 ml/kg.

[4] = system: FGF23; assay: FGF23 ELISA in plasma of nude mice bearing RT112/lucl xenografts; assay type: in vivo, mouse; conditions: 50 or 75 mg/kg/qd p.o., 14 days; two hours post-last dosing
Protocol: Data are presented as means±SD.
Tissue processing for ex vive analysis. At the end of the experiments, 2 hours after the last compound administrations, tumor samples and blood were collected.
Aliquots of 50 mg tumor powder were weighed, placed on ice and immediately resuspended at a ratio of 1:10 (w/v) in ice-chilled lysis buffer (50 mM Tris pH 7.5, 150 mM NaCl, 1 mM EGTA, 5 mM EDTA, 1% Triton, 2 mM NaVanadate, 1 mM PMSF and protease inhibitors cocktail Roche #11873580001). Lysis was allowed to proceed for 30 min on ice, lysates were clarified by centrifugation at 12000×g for 15 min and protein concentration was determined using DC protein assay reagents (Bio Rad #500-0116) and a BSA standard. Blood was collected from the vena cava with a 23 gauge needle into a 1 ml syringe containing 70 μl of a 1000 IU/ml heparin solution. Blood was then stored on ice for 30 min until centrifugation (10,000 g, 5 min) and then the plasma was collected.
FGF23 ELISA assay. […] Briefly, two specific murine monoclonal antibodies that bind to full-length FGF-23 are used: the first antibody is immobilized onto the microtiter plate well for capture and the second antibody is cojugated to HRP (horseradish peroxidase) for detection. In a first reaction, plasma or serum samples are added onto microtiter wells coated with the anti-FGF23 antibody to allow binding. […]

[5] = system: FGF23; assay: FGF23 ELISA in serum of wistar rats; assay type: in vivo, rat; conditions: 24 h post administration, p<0.01
Protocol: Data are presented as means of n=6, ±SD.
Animals. Experiments were performed in female wistar rats furth WF/Ico
The application volumes were 5 ml/kg.
Blood samples were drawn sublingually at 24 h post-compound administration. Plasma, as well as serum samples were prepared from each blood sample.

[6] = system: RT112/lucl xenograft tumors; assay: Anti-tumor activity in RT112/lucl subcutaneous xenograft model in nude mice; assay type: in vivo, mouse; conditions: 14 days; for Regr. (%) / Δ body weight (% ± SEM) / Δ body weight (mean g ± SEM) / Δ tumor volume (mean mm^3 ± SEM): p.o., qd
Protocol: as §1
Establishment of RT112/lucl tumor xenograft model in nude mice. The parental RT-112 human urinary bladder transitional cell carcinoma cell line, which expressed high levels of wild type FGFR3, was initially derived from a patient with untreated primary urinary bladder carcinoma (histological grade G2, stage not recorded) in 1973 (Marshall et al., 1977, Masters et al., 1986). The original stock vial of RT112 cells used in this study was obtained from DSMZ ACC #418.
The cells were cultured in MEM medium supplemented with 10% Fetal Calf Serum, 1% sodium pyruvate and 1% L-glutamine. Cell culture reagents were purchased from BioConcept (Allschwil, Switzerland).
The parental RT112 cell line was infected with the retroviral expression vector pLNCX2/lucl and pools of G418 resistant cells were established and characterized for luciferase expression. The CMV driven expression of luciferase allows the detection of tumors using Xenogen IVIS™ cameras after injection of D-luciferin.
For the RT112/lucl model, treatments were initiated when the mean tumor volumes were approx. 180 mm^3 and mice were treated daily for 14 days. Body weights and tumor volumes were recorded twice a week. Tumor volumes were measured with calipers and determined according to the formula length×diameter^2×π/6.
as §2, §3, §4

## CCN1CCN(c2ccc(Nc3cc(N(C)C(=O)Nc4c(Cl)c(OC)cc(OC)c4Cl)ncn3)cc2)CC1 [COMPOUND A, 3-(2,6-Dichloro-3,5-dimethoxy-phenyl)-1-{6-[4-(4-ethyl-perpazin-1-yl)-phenylamino]-pyrimidin-4-yl}-1-methyl urea]
[1]; group 2, 3 → 100 mg/kg/day p.o., animal # 453 (male)
  FGF-23 cont.: 262.5 pg/mL
[1]; group 2, 3 → 100 mg/kg/day p.o., animal # 454 (female)
  FGF-23 cont.: 211.3 pg/mL
[1]; group 3, 30 mg/kg/day p.o., 15 days, animal # 455 (male)
  FGF-23 cont.: 534.3 pg/mL
[1]; group 3, 30 mg/kg/day p.o., 15 days, animal # 456 (female)
  FGF-23 cont.: 322.7 pg/mL
[1]; group 4, 300 mg/kg/day p.o., 8 days, animal # 457 (male)
  FGF-23 cont.: 824.6 pg/mL
[1]; group 4, 300 mg/kg/day p.o., 8 days, animal # 458 (female)
  FGF-23 cont.: 614.8 pg/mL
[2]; 10 mg/kg/day 15 days + 4 days recovery, 20 mg/kg/day 3 days + 4 days recovery, 20 mg/kg/day 6 days
  Bone remodeling events (histopathology): Signs of bone remodeling events were noted
[2]; 10 mg/kg/qd groups
  Soft tissue/vascular mineralization (histopathology): not observed
[2]; 20 mg/kg once daily p.o., after the 6th administration
  Body weight effect leading to premature termination: severe body weight loss
[2]; 20 mg/kg/day for 3 days after 4 recovery days, and after 6 days of treatment
  Soft tissue/vascular mineralization (histopathology): Soft tissue/vascular mineralization was detected
[2]; male rats, 10 and 20 mg/kg/day p.o., after three days of treatment
  Growth plate thickening (histopathology): Growth plate thickening was detected
[3]; 10 mg/kg
  T/C (%): 34%
  Δ body weight (% ± SEM): 18.0 ± 3.2%
  Δ body weight (mean g ± SEM): 4.2 ± 0.7 g
  Δ tumor volume (mean mm^3 ± SEM): 1320 ± 245* mm^3
[3]; 30 mg/kg
  T/C (%): 4%
  Δ body weight (% ± SEM): 7.0 ± 3.1 %
  Δ body weight (mean g ± SEM): 1.6 ± 0.7 g
  Δ tumor volume (mean mm^3 ± SEM): 156 ± 56* mm^3
[3]; 50 mg/kg
  Regr. (%): 40%
  Δ body weight (% ± SEM): 4.6 ± 2.2 %
  Δ body weight (mean g ± SEM): 1.1 ± 0.5 g
  Δ tumor volume (mean mm^3 ± SEM): −43 ± 28* mm^3
[4]
  Plasma levels of FGF23 vs vehicle-treated group: increased plasma levels of FGF23
[5]; single oral 10 mg/kg
  serum levels of FGF23 vs vehicle-treated group: statistically significant increased in serum levels of FGF23
[6]; 50 mg/kg
  Regr. (%): 67%
  Δ body weight (% ± SEM): 10.8 ± 4.1%
  Δ body weight (mean g ± SEM): 2.6 ± 1.0 g
  Δ tumor volume (mean mm^3 ± SEM): −120 ± 12* mm^3
[6]; 75 mg/kg
  Regr. (%): 74%
  Δ body weight (% ± SEM): −4.0 ± 4.5%
  Δ body weight (mean g ± SEM): -1.1 ± 1.1 g
  Δ tumor volume (mean mm^3 ± SEM): −133 ± 13* mm^3
[6]; 50 and 75 mg/kg per day orally
  Tolerability of treatments: well tolerated

## CCN(CC)CCCCNc1ncc2cc(-c3cc(OC)cc(OC)c3)c(NC(=O)NC(C)(C)C)nc2n1 [PD173074]
[5]; single oral 50 mg/kg
  serum levels of FGF23 vs vehicle-treated group: statistically significant increased in serum levels of FGF23
